What all share (assay): growth of human tumour cells (NCI), 48 h
Assay [1] relates to ACHN renal.
In assay [2] the test system is HCT-15 colon.
The subject of assay [3] is NCI-H460 lung.
Assay [4] relates to OVCAR-3 ovarian.
The subject of assay [5] is OVCAR-8 ovarian.
In assay [6] the test system is PC-3 prostate.
The test system of assay [7] is SF-539 CNS.
Assay [8] relates to SK-OV-3 ovarian.
Assay [9] concerns TK-10 renal.
For assay [10], the system named is UACC-257 melanoma.

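Cultured in 96-well plates, cells were exposed to test compound for 48 hours across five concentrations. GI50 is the concentration that inhibits growth by half. TGI: concentration producing complete growth inhibition.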

In the case of `NCCNCCNCCN`, the GI50 in assay [1], in assay [2], in assay [3], in assay [4], in [5] and in assay [6] was > 100 µM in each case. The GI50 in assay [7], in assay [8], in assay [9] and in assay [10] was > 100 µM throughout. For the same compound, the TGI in [1], in assay [2], in assay [3], in assay [4], in assay [5] and in assay [6] was > 100 µM each time. Further, the TGI in assay [7], in assay [8], in [9] and in assay [10] was > 100 µM throughout.
As for `C=C1C[C@H](O)[C@H](Br)C(C)(C)[C@@]12CCC(C)=C(Cl)C2`, the GI50 in assay [1] was 0.369 µM; in assay [2], 0.269 µM; in assay [3], 0.263 µM; in assay [4] it was 0.509 µM; in assay [5] it was 0.416 µM; in assay [6] it was 0.0573 µM. Also, the results for the GI50 in [7], in assay [8] and in assay [9] were 0.445 µM, 0.297 µM and 0.373 µM, respectively. Further, the TGI in [1] stood at 10.7 µM; in [2], 1.27 µM; in assay [3], 1.61 µM; in assay [4], 4.13 µM; in assay [5], 15.3 µM; in assay [6], 1.87 µM. The TGI in assay [7] was 11.3 µM; in assay [8] it was 6.41 µM; in [9], 2.89 µM.
As for `COc1ccc(Cn2c(Br)c3c(c2Br)-c2nc(N)sc2CC3)cc1`, the GI50 in assay [1] was 3.22 µM; in assay [2], 2.67 µM; in [3], 3.88 µM; in assay [4], 4.1 µM; in assay [5] it was 3.43 µM; in [6], 4.76 µM. Further, the GI50 in assay [7] was 3.48 µM; in [8], 4.01 µM; in [9], 3.69 µM; in assay [10], 8.48 µM. The TGI in [1] amounted to 12 µM; in assay [2], 20.2 µM; in assay [3], 17.3 µM; in assay [4] it was 15.5 µM; in assay [5], 18.4 µM; in [6], 30.1 µM. Besides, the TGI in assay [7] was found to be 13.5 µM; in assay [8], 20 µM; in assay [9], 12.7 µM; in [10], 22.3 µM.
Turning to `CC[C@@H](c1ccc(O)c(O)c1)[C@@H](CC)c1ccc(O)c(O)c1`, the GI50 in assay [1] is 1.94 µM; in assay [2], 2.39 µM; in assay [3] it was 26.1 µM; in assay [4] it was 3.61 µM; in assay [5], 25.6 µM; in assay [6], 12.4 µM. The GI50 is 6.66 µM in assay [7], 29.4 µM in [8], 26 µM in [9] and 14.9 µM in assay [10]. Also, the TGI in [1] was 4.03 µM; in assay [2], 9.41 µM; in assay [3] it was 62 µM; in assay [4], 11.6 µM; in assay [5], > 100 µM; in assay [6] it was 28.9 µM. Moreover, the TGI in [7] was found to be 23.6 µM; in assay [8], 77.9 µM; in [9], 70.3 µM; in assay [10], 38.1 µM.
For the compound `C=C1C(=O)O[C@H]2[C@H]1CC/C(CNC(=O)c1cc3ccccc3[nH]1)=C\CC[C@@]1(C)O[C@@H]21`, the GI50 was 1.26 µM in assay [1]; 0.439 µM in assay [2]; 4.09 µM in assay [3]; 0.504 µM in assay [4]; 2.08 µM in [5]; 2.03 µM in [6]. Further, the GI50 is 1.61 µM in [7], 11.6 µM in [8] and 1.48 µM in assay [9]. Further, the TGI is 3.07 µM in assay [1]; 1.72 µM in [2]; 17.3 µM in assay [3]; 1.69 µM in [4]; 5.87 µM in [5]; 4.78 µM in assay [6]. Also, the values for the TGI in assay [7], in assay [8] and in assay [9] were 3.16 µM, 23.8 µM and 3.23 µM, respectively.
On to `Cc1cc2c(cc1C)[n+](=O)c(C(=O)c1ccccc1)c(C(F)F)n2[O-]`, for which the GI50 in assay [1] was 18 µM; in assay [2] it was 6.76 µM; in [3], 5 µM; in assay [4] it was 18.4 µM; in assay [5], 7.11 µM; in assay [6] it was 16.1 µM. The GI50 in assay [7] was 18.4 µM; in assay [8], 54.5 µM; in assay [9], 38 µM. Also, the TGI in assay [1], in assay [2], in assay [3], in [4], in assay [5] and in [6] was > 100 µM throughout. Further, the TGI in assay [7] is 72.5 µM; in assay [8], > 100 µM; in [9], > 100 µM.
Turning to `CN(C)CC(O)c1ccc(/C=C/c2ccc(Cl)cc2)cc1` (configuration not stated), the GI50 in [1] was 1.63 µM; in assay [2] it was 1.62 µM; in [3], 1.45 µM; in [4] it was 1.57 µM; in [5] it was 1.75 µM; in assay [6], 1.42 µM. The values for the GI50 in assay [7], in assay [8] and in assay [10] were 1.82 µM, 13 µM and 1.63 µM, respectively. The TGI in assay [1] stood at 3.01 µM; in assay [2] it was 3.32 µM; in assay [3], 2.75 µM; in [4], 2.91 µM; in assay [5] it was 3.32 µM; in [6] it was 3.09 µM. The TGI in [7] was found to be 3.84 µM; in [8], 26.5 µM; in assay [10], 3.15 µM.
